Test results as given in patent US12290071B2, “Performic acid biofilm prevention for industrial CO2 scrubbers” (ECOLAB USA INC., priority 2016, dated 2025).

Key:
[1] = test system: broad spectrum of microorganisms; conditions: background statement; cited from earlier work
[2] = test system: Pseudomonas aeruginosa ATCC 15442; experiment: Biocidal performance of performic acid, log reduction in synthetic hard water; type: cell-based; conditions: 0.5, 1.0, 2.0 ppm PFA; 10 minutes and 4 hours contact; 25° C.
Description: Additional biocidal performance of performic acid was evaluated for log reduction of Pseudomonas aeruginosa as shown in Table 2.

[3] = test system: Pseudomonas biofilm; experiment: Pseudomonas biofilm on polycarbonate coupons, PFA compared with another peroxyacid; type: cell-based, Pseudomonas aeruginosa; conditions: 50 ppm PFA vs 200 ppm PAA, hard water pH 7.71, 3 hrs exposure
Description: Additional biocidal performance of performic acid was evaluated for log reduction of Pseudomonas aeruginosa in comparison to another peroxyacid. A Pseudomonas biofilm was treated with 50 ppm active of PFA and compared to efficacy treated with 200 ppm PAA. Pseudomonas biofilms were grown in a CDC biofilm reactor on a poly carbonate coupons. Appropriate concentration of the treatment substance were diluted in hard water at pH 7.71 diluent. Test chemicals were exposed for 3 hrs after which they were treated with 16 mLs of thiosulfate to neutralize any oxidants. The untreated control and treated Pseudomonas were plated on a TGE media and incubated at 35° C. for 48 hrs. A […] reduction was monitored by colony counting of Pseudomonas on plates.

[4] = test system: P. aeruginosa ATCC 15442 biofilm; experiment: Reduction of P. aeruginosa biofilm at different exposure times (ASTM E2562-12 / E2871-12); type: cell-based, Pseudomonas aeruginosa ATCC 15442; conditions: 50 ppm PFA for 15 min to 3 hours vs 200 ppm POAA for 3 hours
Description: Reduction of P. aeruginosa Biofilm Using Different Exposure Times of Peroxyformic Acid. P. aeruginosa ATCC 15442 biofilm was grown on the surface of 24 polycarbonate coupons following ASTM method E2562-12: Standard Test Method for Quantification of Pseudomonas aeruginosa Biofilm Grown with High Shear and Continuous Flow using CDC Biofilm Reactor. After 48 hours of biofilm establishment, the coupons were removed from the reactor and placed into individual centrifuge tubes. Three coupons per test condition were tested for disinfectant efficacy using ASTM method E2871-12: Standard Test Method for Evaluating Disinfectant Efficacy against Pseudomonas aeruginosa Biofilm Grown in CDC Biofilm Reactor using Single Tube Method. Sets of three coupons were exposed to 4 mL of 50 ppm PFA for exposure times of 15 minutes, 30 minutes, 1 hour, 2 hours and 3 hours, while coupons treated with 200 ppm POAA were exposed for 3 hours only. […] This was followed with a series of vortexing and sonicating steps to remove any biofilm from the coupon surface into the solution for plating and enumeration.

[5] = test system: biofilm fouling of CO2 scrubbers; experiment: Field test of CO2 scrubbers in an ethanol fermentation plant; conditions: 30 minute treatment at 75-100 ppm PFA, ambient temperature, 80 gallons per minute
Description: Removal and/or prevention of biofilm fouling of CO2 scrubbers was tested with peroxyformic acid. Such scrubbers were evaluated in an ethanol fermentation plant which conventionally employs CIP cleaning process with hot caustic recirculated through the system every few weeks to clean any biofilm which has accumulated since the prior CIP cleaning cycle. This problem to be solved is the prevention of biofilm in the systems instead of removal of the biofilm after the same has been formed. The prevention of biofilm is more desirable than removal, as biofilm scuffs off and undesirably plugs lines within the system and in an fermentation facility the stream of reclaimed ethanol that goes back into the process may undesirably carry microbes from the biofilm. As a result, the use of performic acid was compared to the conventional CIP cleaning for efficacy. […]

Compound	concentration at which it is a good biocide [1]	biocidal efficacy (in words) [2]	reduction in Pseudomonas aeruginosa compared with peracetic acid (in words) [3]	anti-biofilm efficacy compared with POAA (in words) [4]	biofilm formation in CO2 scrubbers (in words) [5]
CC(=O)OO [Peracetic acid]	greater than 80 part per million				
O=COO [peroxyformic acid]		beneficially efficacy	substantially increased reduction in Pseudomonas aeruginosa	greater anti-biofilm efficacy with shorter exposure time and lower concentrations than POAA	biofilm did not form
